Source: the supplement of paper PMC10307832

Columns and labels:
Test in all cases: relative viability (nuclei count vs DMSO), 5 days (fraction); higher = more cells survive
[1] = compound: CN(C)CC1=CC(=CC=C1)N=C(C2=CC=CC=C2)C3=C(NC4=C3C=CC(=C4)C(=O)N(C)C)O + Nc1ncn([C@H]2C[C@H](O)[C@@H](CO)O2)c(=O)n1 [Decitabine] (partner 2 µM)
Outline: (§1)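 Five library-drug doses in √10 steps were combined with a fixed anchor-drug dose, or a single drug was given alone, by pin tool to lung cancer cell lines in 1536-well plates the day after seeding. Nuclei were stained and counted after 5 days. Relative viability is the nuclei count in treated wells over that in vehicle wells, taken as the median of duplicate plates.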

[2] = compound: CN(C)CC1=CC(=CC=C1)N=C(C2=CC=CC=C2)C3=C(NC4=C3C=CC(=C4)C(=O)N(C)C)O + CCNC(=O)c1noc(-c2cc(C(C)C)c(O)cc2O)c1-c1ccc(CN2CCOCC2)cc1 [Luminespib] (partner 0.01 µM)
Outline: as §1

[3] = compound: CN(C)CC1=CC(=CC=C1)N=C(C2=CC=CC=C2)C3=C(NC4=C3C=CC(=C4)C(=O)N(C)C)O + CS(=O)(=O)CCNCc1ccc(-c2ccc3ncnc(Nc4ccc(OCc5cccc(F)c5)c(Cl)c4)c3c2)o1 [Lapatinib] (partner 2 µM)
Outline: as §1

[4] = compound: CN(C)CC1=CC(=CC=C1)N=C(C2=CC=CC=C2)C3=C(NC4=C3C=CC(=C4)C(=O)N(C)C)O + O=C(c1cc(Cc2n[nH]c(=O)c3ccccc23)ccc1F)N1CCN(C(=O)C2CC2)CC1 [Olaparib] (partner 8 µM)
Outline: as §1

| Cell Line | relative viability ([1]; first compound 0.08 µM) | relative viability ([1]; first compound 0.253 µM) | relative viability ([1]; first compound 0.8 µM) | relative viability ([1]; first compound 2.53 µM) | relative viability ([1]; first compound 8 µM) | relative viability ([2]; first compound 0.08 µM) | relative viability ([2]; first compound 0.253 µM) | relative viability ([2]; first compound 0.8 µM) | relative viability ([2]; first compound 2.53 µM) | relative viability ([2]; first compound 8 µM) | relative viability ([3]; first compound 0.08 µM) | relative viability ([3]; first compound 0.253 µM) | relative viability ([3]; first compound 0.8 µM) | relative viability ([3]; first compound 2.53 µM) | relative viability ([3]; first compound 8 µM) | relative viability ([4]; first compound 0.08 µM) | relative viability ([4]; first compound 0.253 µM) | relative viability ([4]; first compound 0.8 µM) | relative viability ([4]; first compound 2.53 µM) | relative viability ([4]; first compound 8 µM) |
| --- | --- | --- | --- | --- | --- | --- | --- | --- | --- | --- | --- | --- | --- | --- | --- | --- | --- | --- | --- | --- |
| LK-2 | 0.306 | 0.375 | 0.276 | 0.328 | 0.286 | 0.229 | 0.164 | 0.188 | 0.183 | 0.138 | 1.05 | 0.97 | 0.898 | 0.841 | 0.637 | 0.901 | 0.653 | 0.572 | 0.679 | 0.489 |
| NCI-H1944 | 0.449 | 0.428 | 0.382 | 0.461 | 0.489 | 0.758 | 0.766 | 0.785 | 0.657 | 0.585 | 0.805 | 0.835 | 0.924 | 0.755 | 0.765 | 0.424 | 0.389 | 0.373 | 0.42 | 0.377 |
| HCC-827 | 0.334 | 0.349 | 0.305 | 0.367 | 0.341 | 0.442 | 0.651 | 0.457 | 0.723 | 0.489 | 0.218 | 0.191 | 0.197 | 0.191 | 0.191 | 0.615 | 0.65 | 0.67 | 0.623 | 0.685 |
| NCI-H322M | 0.598 | 0.719 | 0.644 | 0.652 | 0.567 | 0.808 | 0.864 | 0.62 | 0.707 | 0.532 | 0.612 | 0.599 | 0.54 | 0.564 | 0.575 | 0.68 | 0.753 | 0.679 | 0.645 | 0.661 |
| UMC-11 | 0.724 | 0.633 | 0.693 | 0.546 | 0.611 | 0.982 | 0.941 | 1.08 | 0.974 | 0.821 | 1.1 | 0.963 | 0.969 | 0.891 | 0.846 | 0.37 | 0.368 | 0.344 | 0.371 | 0.349 |
| EPLC-272H | 0.39 | 0.422 | 0.297 | 0.471 | 0.383 | 0.309 | 0.363 | 0.239 | 0.308 | 0.211 | 0.927 | 0.996 | 0.845 | 0.955 | 0.989 | 0.696 | 0.888 | 0.689 | 0.664 | 0.583 |
| NCI-H1666 | 0.694 | 0.715 | 0.68 | 0.769 | 0.744 | 1.02 | 1.02 | 1.08 | 1.01 | 1.02 | 0.868 | 0.616 | 0.887 | 0.668 | 0.774 | 0.763 | 0.761 | 0.785 | 0.754 | 0.797 |
| NCI-H650 | 0.364 | 0.408 | 0.335 | 0.33 | 0.371 | 0.843 | 0.777 | 0.872 | 0.667 | 0.861 | 1.02 | 1.12 | 1.07 | 0.706 | 0.755 | 0.418 | 0.395 | 0.448 | 0.359 | 0.406 |
